Test results: US8492550B2, “Hydroxyalkanyl amides as modulators of chemokine receptor activity” (Bristol-Myers Squibb Company, priority 2008, dated 2013)

Target: T1, CCR1 (Homo sapiens, UniProt P32246)
T1 construct: the THP-1 cell line, which expresses the endogenous CCR1 receptor; endogenous in cells; host or cells: THP-1 (human monocytic cell line); human PBMC or human monocytes are named as alternatives
T1 sequence (P32246 1-355): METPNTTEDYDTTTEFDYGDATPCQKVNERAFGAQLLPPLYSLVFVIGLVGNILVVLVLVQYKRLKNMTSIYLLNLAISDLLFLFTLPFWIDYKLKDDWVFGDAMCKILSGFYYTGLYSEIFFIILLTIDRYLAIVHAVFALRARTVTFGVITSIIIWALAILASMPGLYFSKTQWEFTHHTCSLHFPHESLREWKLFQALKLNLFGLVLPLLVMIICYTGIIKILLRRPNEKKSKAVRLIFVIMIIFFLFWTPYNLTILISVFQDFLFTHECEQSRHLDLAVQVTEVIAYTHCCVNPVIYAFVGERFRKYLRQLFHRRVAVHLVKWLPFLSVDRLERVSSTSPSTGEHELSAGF
Test: Antagonism of 125I-MIP-1α binding to human THP-1 cells (CCR1 binding)
Settings: THP-1 cells expressing endogenous CCR1; 50 pM 125I-labeled human MIP-1α; room temperature, thirty minutes; read-out: CCR1 Binding Ki (n = 1 unless otherwise noted)
Procedure: Antagonism of MIP-1α Binding to Human THP-1 Cells
Compounds of the present invention have activity in the antagonism of MIP-1α binding to human THP-1 cells described here.
Millipore filter plates (#MABVN1250) are treated with 100 μl of binding buffer (0.5% bovine serum albumin, 20 mM HEPES buffer and 5 mM magnesium chloride in RPMI 1640 media) for thirty minutes at room temperature. To measure binding, 50 μl of binding buffer, with or without a known concentration of compound, is combined with 50 μl of ^125-I labeled human MIP-1α (to give a final concentration of 50 pM radioligand) and 50 μl of binding buffer containing 5×10^5 cells. Cells used for such binding assays can include the THP-1 cell line, which expresses the endogenous CCR1 receptor, or human peripheral blood mononuclear cells, isolated by Ficoll-Hypaque gradient centrifugation, or human monocytes (Weiner et al., J. Immunol. Methods, 36:89 (1980)). The mixture of compound, cells and radioligand is incubated at room temperature for thirty minutes. Plates are placed onto a vacuum manifold, vacuum applied, and the plates washed three times with binding buffer containing 0.5M NaCl. The plastic skirt is removed from the plate, the plate allowed to air dry, the wells punched out and counted. […]

Ki [nM] | Structure (SMILES)
930 | CCC(NC(=O)C1CCCC1)C(O)C1CCN(c2ccc(Cl)cc2)CC1 (single isomer, unassigned) [Example 1, N-(1-(1-(4-Chlorophenyl)piperidin-4-yl)-1-hydroxybutan-2-yl)cyclopentanecarboxamide]
354 | CCC(NC(=O)C1CCCC1)C(O)C1CCN(c2ccc(Cl)cc2)CC1 (single isomer, unassigned) [Example 2, N-(1-(1-(4-Chlorophenyl)piperidin-4-yl)-1-hydroxybutan-2-yl)cyclopentanecarboxamide]
